In experiment [1] the test system is KARPAS422 human B cell lymphoma cell. The experiment in a line: Cell proliferation, KARPAS422, 7 day treatment (WST-8). The class given is cell-based. To be noted: Homo sapiens, KARPAS-422, 168 h, anti-proliferative IC50, Karpas 422 cell line, 7 day treatment; read-out: Karpas Cell line. Summed up:
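Read-out was WST-8 absorbance at 450 nm after 1-4 h with reagent, taken after 7-day compound treatment (serial dilutions, 37 °C, 5% CO2) of 2 000-3 000 KARPAS422 cells per well. IC50 fitted by nonlinear regression on DMSO-normalized values.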
For orientation: Tetrazolium dyes change colour on reduction, which living cells bring about.

For another experiment, the system named is Pfeiffer cell line. The experiment is described as follows: Anti-proliferative activity, Pfeiffer cell line, 7 day treatment. The class given is cell-based. As to conditions: Homo sapiens, 168 h; anti-proliferative IC50, Pfeiffer cell line, 7 day treatment; read-out: Pfeiffer Cell line. Summed up: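 Cells seeded at 2 000-3 000 per well were treated with serially diluted compounds for 7 days at 37° C, 5% CO2. Growth was measured by WST-8 assay read at 450 nm after 1-4 h reagent incubation. Readings were normalized to DMSO-treated cells and IC50 values derived by nonlinear regression.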

Structures are written as SMILES. pIC50: −log10 of the molar value.

In the case of `O=C1c2ncn3c(NCc4c(F)ccc5c4CCO5)ncc(c23)-c2cnc(C(F)(F)F)cc2CN1CC1COCCO1` (stereo not drawn) [compound 37, 4-((1,4-dioxan-2-yl)methyl)-12-(((5-fluoro-2,3-dihydrobenzofuran-4-yl)methyl)amino)-7-(trifluoromethyl)-4,5-dihydro-3H-2,4,8,11,12a-pentaazabenzo[4,5]cycloocta[1,2,3-cd]inden-3-one], the pIC50 in experiment [1] was 8.75; in the experiment with Pfeiffer cell line, 9.60.

As for `CN1CCC(CN2Cc3cc(C(F)(F)F)ncc3-c3cnc(NCc4c(F)ccc5c4CCO5)n4cnc(c34)C2=O)CC1` [compound 38, 12-(((5-fluoro-2,3-dihydrobenzofuran-4-yl)methyl)amino)-4-((1-methylpiperidin-4-yl)methyl)-7-(trifluoromethyl)-4,5-dihydro-3H-2,4,8,11,12a-pentaazabenzo[4,5]cycloocta[1,2,3-cd]inden-3-one], the pIC50 in experiment [1] was 7.80; in the experiment on Pfeiffer cell line, 8.49.

On to `CN1Cc2ccc(C(F)(F)F)nc2-c2cnc(NCc3c(F)ccc4c3CCO4)n3cnc(c23)C1=O` [compound 39, 12-(((5-fluoro-2,3-dihydrobenzofuran-4-yl)methyl)amino)-4-methyl-8-(trifluoromethyl)-4,5-dihydro-3H-2,4,9,11,12a-pentaazabenzo[4,5]cycloocta[1,2,3-cd]inden-3-one], for which the pIC50 in experiment [1] is under 7.00; with Pfeiffer cell line, 7.64.

As for `O=C1c2ncn3c(NCc4c(F)ccc5c4CCO5)ncc(c23)-c2nc(C(F)(F)F)ccc2CN1CC1COCCO1` (stereo not drawn) [compound 40, 4-((1,4-dioxan-2-yl)methyl)-12-(((5-fluoro-2,3-dihydrobenzofuran-4-yl)methyl)amino)-8-(trifluoromethyl)-4,5-dihydro-3H-2,4,9,11,12a-pentaazabenzo[4,5]cycloocta[1,2,3-cd]inden-3-one], the pIC50 in experiment [1] was under 7.00; in the experiment on Pfeiffer cell line, 7.41.

`O=C1c2ncn3c(NCc4c(F)ccc5c4CCO5)ncc(c23)-c2ccc(C(F)(F)F)nc2CN1C1CC1` [compound 41, 4-cyclopropyl-12-(((5-fluoro-2,3-dihydrobenzofuran-4-yl)methyl)amino)-7-(trifluoromethyl)-4,5-dihydro-3H-2,4,6,11,12a-pentaazabenzo[4,5]cycloocta[1,2,3-cd]inden-3-one]: the pIC50 in experiment [1] was 8.77; in the experiment with Pfeiffer cell line, 8.99.

Take `CN1CCC(CN2Cc3nc(C(F)(F)F)ccc3-c3cnc(NCc4c(F)ccc5c4CCO5)n4cnc(c34)C2=O)CC1` [compound 42, 12-(((5-fluoro-2,3-dihydrobenzofuran-4-yl)methyl)amino)-4-((1-methylpiperidin-4-yl)methyl)-7-(trifluoromethyl)-4,5-dihydro-3H-2,4,6,11,12a-pentaazabenzo[4,5]cycloocta[1,2,3-cd]inden-3-one]: the pIC50 in experiment [1] was 8.40; in the experiment on Pfeiffer cell line, 8.38.

Take `O=C1c2ncn3c(NCc4c(F)ccc5c4CCO5)ncc(c23)-c2cnc(C(F)(F)F)cc2CN1CC1(O)CC1` [compound 43, 12-(((5-fluoro-2,3-dihydrobenzofuran-4-yl)methyl)amino)-4-((1-hydroxycyclopropyl)methyl)-7-(trifluoromethyl)-4,5-dihydro-3H-2,4,8,11,12a-pentaazabenzo[4,5]cycloocta[1,2,3-cd]inden-3-one]: the pIC50 in experiment [1] was 8.26; in the experiment with Pfeiffer cell line, 8.98.

Consider `O=C1c2ncn3c(NCc4c(F)ccc5c4CCO5)ncc(c23)-c2ccc(C(F)(F)F)nc2CN1CC1(O)CC1` [compound 44, 12-(((5-fluoro-2,3-dihydrobenzofuran-4-yl)methyl)amino)-4-((1-hydroxycyclopropyl)methyl)-7-(trifluoromethyl)-4,5-dihydro-3H-2,4,6,11,12a-pentaazabenzo[4,5]cycloocta[1,2,3-cd]inden-3-one], for which the values for the pIC50 (in experiment [1]; in the experiment with Pfeiffer cell line) were 8.61 and 8.99, respectively.

For the compound `O=C1c2ncn3c(NCc4c(F)ccc5c4CCO5)ncc(c23)-c2cnc(C(F)(F)F)cc2CN1CC1CCOCC1` [compound 45, 12-(((5-fluoro-2,3-dihydrobenzofuran-4-yl)methyl)amino)-4-((tetrahydro-2H-pyran-4-yl)methyl)-7-(trifluoromethyl)-4,5-dihydro-3H-2,4,8,11,12a-pentaazabenzo[4,5]cycloocta[1,2,3-cd]inden-3-one], the pIC50 in experiment [1] is 8.21; in the experiment with Pfeiffer cell line, 9.21.

Regarding `CC(F)(F)CN1Cc2cc(C(F)(F)F)ncc2-c2cnc(NCc3c(F)ccc4c3CCO4)n3cnc(c23)C1=O` [compound 82, 4-(2,2-difluoropropyl)-12-(((5-fluoro-2,3-dihydrobenzofuran-4-yl)methyl)amino)-7-(trifluoromethyl)-4,5-dihydro-3H-2,4,8,11,12a-pentaazabenzo[4,5]cycloocta[1,2,3-cd]inden-3-one], the pIC50 in experiment [1] is 8.45; in the experiment with Pfeiffer cell line, 10.13.

On to `O=C1c2ncn3c(NCc4c(F)ccc5c4CCO5)ncc(c23)-c2ccc(C(F)(F)F)cc2CN1CC(F)(F)F` [compound 83, 12-(((5-fluoro-2,3-dihydrobenzofuran-4-yl)methyl)amino)-4-(2,2,2-trifluoroethyl)-7-(trifluoromethyl)-4,5-dihydro-3H-2,4,11,12a-tetraazabenzo[4,5]cycloocta[1,2,3-cd]inden-3-one], for which the pIC50 is 8.20 in experiment [1] and 9.52 with Pfeiffer cell line.

Take `O=C1c2ncn3c(NCc4c(F)ccc5c4CCO5)ncc(c23)-c2cnc(C(F)(F)F)cc2CN1CC(F)(F)F` [compound 84, 12-(((5-fluoro-2,3-dihydrobenzofuran-4-yl)methyl)amino)-4-(2,2,2-trifluoroethyl)-7-(trifluoromethyl)-4,5-dihydro-3H-2,4,8,11,12a-pentaazabenzo[4,5]cycloocta[1,2,3-cd]inden-3-one]: the pIC50 was 8.83 in experiment [1] and 10.32 in the experiment with Pfeiffer cell line.

For the compound `O=C1c2ncn3c(NCc4c(F)ccc5c4CCO5)ncc(c23)-c2cnc(C(F)(F)F)cc2CN1C1CC(F)(F)C1` [compound 85, 4-(3,3-difluorocyclobutyl)-12-(((5-fluoro-2,3-dihydrobenzofuran-4-yl)methyl)amino)-7-(trifluoromethyl)-4,5-dihydro-3H-2,4,8,11,12a-pentaazabenzo[4,5]cycloocta[1,2,3-cd]inden-3-one], the pIC50 is 8.57 in experiment [1] and 9.89 in the experiment on Pfeiffer cell line.

Take `Cc1nc2c(s1)-c1cnc(NCc3c(F)ccc4c3CCO4)n3cnc(c13)C(=O)N(C1CC1)C2` [compound 86, 4-cyclopropyl-11-(((5-fluoro-2,3-dihydrobenzofuran-4-yl)methyl)amino)-7-methyl-4,5-dihydro-3H-8-thia-2,4,6,10,11a-pentaazacyclopenta[4,5]cycloocta[1,2,3-cd]inden-3-one]: the results for the pIC50 (in experiment [1]; in the experiment with Pfeiffer cell line) were 8.64 and 10.68, respectively.

As to `O=C1c2ncn3c(NCc4c(F)ccc5c4CCO5)ncc(c23)-c2ccsc2CN1C1CC1` [compound 88, 4-cyclopropyl-11-(((5-fluoro-2,3-dihydrobenzofuran-4-yl)methyl)amino)-4,5-dihydro-3H-6-thia-2,4,10,11a-tetraazacyclopenta[4,5]cycloocta[1,2,3-cd]inden-3-one], the results for the pIC50 (in experiment [1]; in the experiment on Pfeiffer cell line) were 7.59 and 10.46, respectively.

Take `CCN1Cc2cc(C(F)(F)F)ncc2-c2cnc(NCc3c(F)ccc4c3CCO4)n3cnc(c23)C1=O` [compound 90, 4-ethyl-12-(((5-fluoro-2,3-dihydrobenzofuran-4-yl)methyl)amino)-7-(trifluoromethyl)-4,5-dihydro-3H-2,4,8,11,12a-pentaazabenzo[4,5]cycloocta[1,2,3-cd]inden-3-one]: the pIC50 in experiment [1] was 10.11; in the experiment on Pfeiffer cell line it was 10.36.

Turning to `O=C1c2ncn3c(NCc4c(F)ccc5c4CCO5)ncc(c23)-c2sc(C(F)(F)F)nc2CN1C1CC1` [compound 91, 4-cyclopropyl-11-(((5-fluoro-2,3-dihydrobenzofuran-4-yl)methyl)amino)-7-(trifluoromethyl)-4,5-dihydro-3H-8-thia-2,4,6,10,11a-pentaazacyclopenta[4,5]cycloocta[1,2,3-cd]inden-3-one], the pIC50 in experiment [1] is 8.28; in the experiment with Pfeiffer cell line it was 10.37.

On to `CC1CC(N2Cc3cc(C(F)(F)F)ccc3-c3cnc(NCc4c(F)ccc5c4CCO5)n4cnc(c34)C2=O)CC(C)O1` (stereo not drawn) [compound 93, 4-(2,6-dimethyltetrahydro-2H-pyran-4-yl)-12-(((5-fluoro-2,3-dihydrobenzofuran-4-yl)methyl)amino)-7-(trifluoromethyl)-4,5-dihydro-3H-2,4,11,12a-tetraazabenzo [4,5]cycloocta[1,2,3-cd]inden-3-one], for which the pIC50 in experiment [1] was 8.43; in the experiment on Pfeiffer cell line it was 9.26.

With `O=S1(=O)Cc2ncccc2-c2cnc(NCc3c(F)ccc4c3CCO4)n3cnc1c23` [compound 94, 11-(((5-fluoro-2,3-dihydrobenzofuran-4-yl)methyl)amino)-4H-3-thia-2,5,10,11a-tetraazadibenzo[cd,f]azulene 3,3-dioxide], the figures for the pIC50 (in experiment [1]; with Pfeiffer cell line) were 7.86 and 9.70, respectively.

On to `O=S1(=O)CCc2cc(F)ccc2-c2cnc(NCc3c(F)ccc4c3CCO4)n3cnc1c23` [compound 96, 7-fluoro-12-(((5-fluoro-2,3-dihydrobenzofuran-4-yl)methyl)amino)-4,5-dihydro-3-thia-2,11,12a-triazabenzo[4,5]cycloocta[1,2,3-cd]indene 3,3-dioxide], for which the figures for the pIC50 (in experiment [1]; in the experiment on Pfeiffer cell line) were 7.67 and 10.25, respectively.

In the case of `Cc1ccc2c(n1)CCS(=O)(=O)c1ncn3c(NCc4c(F)ccc5c4CCO5)ncc-2c13` [compound 97, 12-(((5-fluoro-2,3-dihydrobenzofuran-4-yl)methyl)amino)-7-methyl-4,5-dihydro-3-thia-2,6,11,12a-tetraazabenzo[4,5]cycloocta[1,2,3-cd]indene 3,3-dioxide], the pIC50 in experiment [1] is 8.73; in the experiment with Pfeiffer cell line, 10.24.
